Measurements taken from ChEMBL document CHEMBL5331093, “Identification of "dual-site"-binding diarylpyrimidines targeting both NNIBP and the NNRTI adjacent site of the HIV-1 reverse transcriptase” (Eur J Med Chem, 2023).
Converted amounts (≈) assume the structure as drawn.

Tested on: not listed separately
Experiment: Selectivity index, ratio of CC50 cytotoxicity against human MT4 cells to EC50 for anti-HIV activity against NNRTI-resistant HIV-1 RES056 harboring RT K103N/Y181C double mutant infected in human MT4 cells
Assay type: toxicity, cell-based
Settings: read-out: Ratio CC50/EC50

| SMILES | selectivity ratio |
| --- | --- |
| Cc1cc(C#N)cc(C)c1Oc1nc(Nc2ccc(C#N)cc2)ncc1SCC(=O)NCCCN1CCOCC1 | 61 |
| C#CCNC(=O)/C=C/c1cnc(Nc2ccc(C#N)cc2)nc1Oc1c(C)cc(C#N)cc1C | 109 |
| Cc1cc(C#N)cc(C)c1Oc1nc(Nc2ccc(C#N)cc2)ncc1C#CC(=O)NCCCN1CCOCC1 | 17 |
| Cc1cc(C#N)cc(C)c1Oc1nc(Nc2ccc(C#N)cc2)ncc1C#CC(=O)NCCOCCO | 11 |
| C#CCNC(=O)C#Cc1cnc(Nc2ccc(C#N)cc2)nc1Oc1c(C)cc(C#N)cc1C | 9 |
| COC(=O)C1CCC(NC(=O)C#Cc2cnc(Nc3ccc(C#N)cc3)nc2Oc2c(C)cc(C#N)cc2C)CC1 (stereo not drawn) | 17 |
| COCCNC(=O)C#Cc1cnc(Nc2ccc(C#N)cc2)nc1Oc1c(C)cc(C#N)cc1C | 379 |

Tested on: Human immunodeficiency virus 1
Experiment: Anti-HIV activity against NNRTI-resistant HIV-1 harboring RT Y181C mutant infected in human MT4 cells assessed as inhibition of virus-induced cytopathic effect incubated for 5 days by MTT assay
Assay type: functional, organism-based
Settings: Human immunodeficiency virus 1, MT4, 120 h

| SMILES | EC50 [nM] |
| --- | --- |
| Cc1cc(C#N)cc(C)c1Oc1nc(Nc2ccc(C#N)cc2)ncc1SCC(=O)NCCCN1CCOCC1 | 30.9 |
| C#CCNC(=O)C#Cc1cnc(Nc2ccc(C#N)cc2)nc1Oc1c(C)cc(C#N)cc1C | 87.2 |
| COC(=O)C1CCC(NC(=O)C#Cc2cnc(Nc3ccc(C#N)cc3)nc2Oc2c(C)cc(C#N)cc2C)CC1 (stereo not drawn) | 101 |
| COCCNC(=O)C#Cc1cnc(Nc2ccc(C#N)cc2)nc1Oc1c(C)cc(C#N)cc1C | 9.6 |

Tested on: not listed separately
Experiment: Aqueous solubility of the compound at pH 2.0
Assay type: physicochemical
Settings: aqueous medium

| SMILES | solubility [µg/mL] |
| --- | --- |
| COCCNC(=O)C#Cc1cnc(Nc2ccc(C#N)cc2)nc1Oc1c(C)cc(C#N)cc1C | 22.8 (≈ 48.9 µM) |

Biological target: Human immunodeficiency virus type 1 reverse transcriptase (Human immunodeficiency virus 1, UniProt Q72547)
Experiment: Inhibition of wild type recombinant HIV-1 reverse transcriptase assessed as reduction of biotin-dUTP incorporation into […] using ABTS as substrate incubated for 1 hrs by ELISA analysis
Settings: not given

| SMILES | IC50 [nM] |
| --- | --- |
| Cc1cc(C#N)cc(C)c1Oc1nc(Nc2ccc(C#N)cc2)ncc1SCC(=O)NCCCN1CCOCC1 | 113 |
| COC(=O)C1CCC(NC(=O)C#Cc2cnc(Nc3ccc(C#N)cc3)nc2Oc2c(C)cc(C#N)cc2C)CC1 (stereo not drawn) | 185 |
| COCCNC(=O)C#Cc1cnc(Nc2ccc(C#N)cc2)nc1Oc1c(C)cc(C#N)cc1C | 19 |

Tested on: Human immunodeficiency virus 1
Experiment: Anti-HIV activity against NNRTI-resistant HIV-1 harboring RT L100I mutant infected in human MT4 cells assessed as inhibition of virus-induced cytopathic effect incubated for 5 days by MTT assay
Assay type: functional, organism-based
Settings: Human immunodeficiency virus 1, MT4, 120 h

| SMILES | EC50 [nM] |
| --- | --- |
| Cc1cc(C#N)cc(C)c1Oc1nc(Nc2ccc(C#N)cc2)ncc1SCC(=O)NCCCN1CCOCC1 | 25.8 |
| C#CCNC(=O)C#Cc1cnc(Nc2ccc(C#N)cc2)nc1Oc1c(C)cc(C#N)cc1C | 125 |
| COC(=O)C1CCC(NC(=O)C#Cc2cnc(Nc3ccc(C#N)cc3)nc2Oc2c(C)cc(C#N)cc2C)CC1 (stereo not drawn) | 131 |
| COCCNC(=O)C#Cc1cnc(Nc2ccc(C#N)cc2)nc1Oc1c(C)cc(C#N)cc1C | 6.06 |

Tested on: Human immunodeficiency virus 1
Experiment: Anti-HIV activity against NNRTI-resistant HIV-1 harboring RT F227L/V106A double mutant infected in human MT4 cells assessed as inhibition of virus-induced cytopathic effect incubated for 5 days by MTT assay
Assay type: functional, organism-based
Settings: Human immunodeficiency virus 1, MT4, 120 h

| SMILES | EC50 [nM] |
| --- | --- |
| Cc1cc(C#N)cc(C)c1Oc1nc(Nc2ccc(C#N)cc2)ncc1SCC(=O)NCCCN1CCOCC1 | 231 |
| C#CCNC(=O)C#Cc1cnc(Nc2ccc(C#N)cc2)nc1Oc1c(C)cc(C#N)cc1C | 452 |
| COC(=O)C1CCC(NC(=O)C#Cc2cnc(Nc3ccc(C#N)cc3)nc2Oc2c(C)cc(C#N)cc2C)CC1 (stereo not drawn) | 3210 |
| COCCNC(=O)C#Cc1cnc(Nc2ccc(C#N)cc2)nc1Oc1c(C)cc(C#N)cc1C | 61.1 |

Tested on: Human immunodeficiency virus 1
Experiment: Anti-HIV activity against NNRTI-resistant HIV-1 harboring RT E138K mutant infected in human MT4 cells assessed as inhibition of virus-induced cytopathic effect incubated for 5 days by MTT assay
Assay type: functional, organism-based
Settings: Human immunodeficiency virus 1, MT4, 120 h

| SMILES | EC50 [nM] |
| --- | --- |
| Cc1cc(C#N)cc(C)c1Oc1nc(Nc2ccc(C#N)cc2)ncc1SCC(=O)NCCCN1CCOCC1 | 38.1 |
| C#CCNC(=O)C#Cc1cnc(Nc2ccc(C#N)cc2)nc1Oc1c(C)cc(C#N)cc1C | 27.2 |
| COC(=O)C1CCC(NC(=O)C#Cc2cnc(Nc3ccc(C#N)cc3)nc2Oc2c(C)cc(C#N)cc2C)CC1 (stereo not drawn) | 26.9 |
| COCCNC(=O)C#Cc1cnc(Nc2ccc(C#N)cc2)nc1Oc1c(C)cc(C#N)cc1C | 6.27 |

Tested on: Human immunodeficiency virus 1
Experiment: Anti-HIV activity against NNRTI-resistant HIV-1 harboring RT K103N mutant infected in human MT4 cells assessed as inhibition of virus-induced cytopathic effect incubated for 5 days by MTT assay
Assay type: functional, organism-based
Settings: Human immunodeficiency virus 1, MT4, 120 h

| SMILES | EC50 [nM] |
| --- | --- |
| Cc1cc(C#N)cc(C)c1Oc1nc(Nc2ccc(C#N)cc2)ncc1SCC(=O)NCCCN1CCOCC1 | 2.78 |
| C#CCNC(=O)C#Cc1cnc(Nc2ccc(C#N)cc2)nc1Oc1c(C)cc(C#N)cc1C | 15.2 |
| COC(=O)C1CCC(NC(=O)C#Cc2cnc(Nc3ccc(C#N)cc3)nc2Oc2c(C)cc(C#N)cc2C)CC1 (stereo not drawn) | 20.4 |
| COCCNC(=O)C#Cc1cnc(Nc2ccc(C#N)cc2)nc1Oc1c(C)cc(C#N)cc1C | 2.36 |

Tested on: not listed separately
Experiment: Resistance factor, ratio of EC50 for anti-HIV activity against NNRTI-resistant HIV-1 RES056 harboring RT K103N/Y181C double mutant infected in human MT4 cells to EC50 for anti-HIV activity against wild type HIV-1 IIIB infected in human MT4 cells
Assay type: functional
Settings: not given

| SMILES | Ratio EC50 |
| --- | --- |
| Cc1cc(C#N)cc(C)c1Oc1nc(Nc2ccc(C#N)cc2)ncc1SCC(=O)NCCCN1CCOCC1 | 113 |
| C#CCNC(=O)/C=C/c1cnc(Nc2ccc(C#N)cc2)nc1Oc1c(C)cc(C#N)cc1C | 248 |
| Cc1cc(C#N)cc(C)c1Oc1nc(Nc2ccc(C#N)cc2)ncc1C#CC(=O)NCCCN1CCOCC1 | 268 |
| Cc1cc(C#N)cc(C)c1Oc1nc(Nc2ccc(C#N)cc2)ncc1C#CC(=O)NCCOCCO | 78 |
| C#CCNC(=O)C#Cc1cnc(Nc2ccc(C#N)cc2)nc1Oc1c(C)cc(C#N)cc1C | 132 |
| COC(=O)C1CCC(NC(=O)C#Cc2cnc(Nc3ccc(C#N)cc3)nc2Oc2c(C)cc(C#N)cc2C)CC1 (stereo not drawn) | 104 |
| COCCNC(=O)C#Cc1cnc(Nc2ccc(C#N)cc2)nc1Oc1c(C)cc(C#N)cc1C | 18 |

Tested on: not listed separately
Experiment: Aqueous solubility of the compound at pH 7.4
Assay type: physicochemical
Settings: aqueous medium

| SMILES | solubility [µg/mL] |
| --- | --- |
| COCCNC(=O)C#Cc1cnc(Nc2ccc(C#N)cc2)nc1Oc1c(C)cc(C#N)cc1C | 7.84 (≈ 16.8 µM) |

Tested on: Human immunodeficiency virus 1
Experiment: Anti-HIV activity against NNRTI-resistant HIV-1 harboring RT Y188L mutant infected in human MT4 cells assessed as inhibition of virus-induced cytopathic effect incubated for 5 days by MTT assay
Assay type: functional, organism-based
Settings: Human immunodeficiency virus 1, MT4, 120 h

| SMILES | EC50 [nM] |
| --- | --- |
| Cc1cc(C#N)cc(C)c1Oc1nc(Nc2ccc(C#N)cc2)ncc1SCC(=O)NCCCN1CCOCC1 | 94.6 |
| C#CCNC(=O)C#Cc1cnc(Nc2ccc(C#N)cc2)nc1Oc1c(C)cc(C#N)cc1C | 155 |
| COC(=O)C1CCC(NC(=O)C#Cc2cnc(Nc3ccc(C#N)cc3)nc2Oc2c(C)cc(C#N)cc2C)CC1 (stereo not drawn) | 171 |
| COCCNC(=O)C#Cc1cnc(Nc2ccc(C#N)cc2)nc1Oc1c(C)cc(C#N)cc1C | 14.3 |

Tested on: not listed separately
Experiment: Aqueous solubility of the compound at pH 7.0
Assay type: physicochemical
Settings: aqueous medium

| SMILES | solubility [µg/mL] |
| --- | --- |
| COCCNC(=O)C#Cc1cnc(Nc2ccc(C#N)cc2)nc1Oc1c(C)cc(C#N)cc1C | 8.27 (≈ 17.7 µM) |

Tested on: Human immunodeficiency virus 1
Experiment: Anti-HIV activity against NNRTI-resistant HIV-1 RES056 harboring RT K103N/Y181C double mutant infected in human MT4 cells assessed as inhibition of virus-induced cytopathic effect incubated for 5 days by MTT assay
Assay type: functional, organism-based
Settings: Human immunodeficiency virus 1, RES056, MT4, 120 h

| SMILES | EC50 [nM] |
| --- | --- |
| Cc1cc(C#N)cc(C)c1Oc1nc(Nc2ccc(C#N)cc2)ncc1SCC(=O)NCCCN1CCOCC1 | 386 |
| Cc1cc(C#N)cc(C)c1Oc1nc(Nc2ccc(C#N)cc2)ncc1C#CC(=O)NCCCN1CCOCC1 | 3440 |
| Cc1cc(C#N)cc(C)c1Oc1nc(Nc2ccc(C#N)cc2)ncc1C#CC(=O)NCCOCCO | 818 |
| C#CCNC(=O)C#Cc1cnc(Nc2ccc(C#N)cc2)nc1Oc1c(C)cc(C#N)cc1C | 814 |
| COC(=O)C1CCC(NC(=O)C#Cc2cnc(Nc3ccc(C#N)cc3)nc2Oc2c(C)cc(C#N)cc2C)CC1 (stereo not drawn) | 664 |
| COCCNC(=O)C#Cc1cnc(Nc2ccc(C#N)cc2)nc1Oc1c(C)cc(C#N)cc1C | 35.7 |

Tested on: not listed separately
Experiment: Selectivity index, ratio of CC50 cytotoxicity against human MT4 cells to EC50 for anti-HIV activity against wild type HIV-1 IIIB infected in human MT4 cells
Assay type: toxicity, cell-based
Settings: read-out: Ratio CC50/EC50

| SMILES | selectivity ratio |
| --- | --- |
| Cc1cc(C#N)cc(C)c1Oc1nc(Nc2ccc(C#N)cc2)ncc1SCC(=O)NCCCN1CCOCC1 | 6930 |
| C#CCNC(=O)/C=C/c1cnc(Nc2ccc(C#N)cc2)nc1Oc1c(C)cc(C#N)cc1C | 27100 |
| Cc1cc(C#N)cc(C)c1Oc1nc(Nc2ccc(C#N)cc2)ncc1C#CC(=O)NCCCN1CCOCC1 | 4600 |
| Cc1cc(C#N)cc(C)c1Oc1nc(Nc2ccc(C#N)cc2)ncc1C#CC(=O)NCCOCCO | 890 |
| C#CCNC(=O)C#Cc1cnc(Nc2ccc(C#N)cc2)nc1Oc1c(C)cc(C#N)cc1C | 1140 |
| COC(=O)C1CCC(NC(=O)C#Cc2cnc(Nc3ccc(C#N)cc3)nc2Oc2c(C)cc(C#N)cc2C)CC1 (stereo not drawn) | 1800 |
| COCCNC(=O)C#Cc1cnc(Nc2ccc(C#N)cc2)nc1Oc1c(C)cc(C#N)cc1C | 6650 |

Tested on: Human immunodeficiency virus 1
Experiment: Anti-HIV activity against wild type HIV-1 IIIB infected in human MT4 cells assessed as inhibition of virus-induced cytopathic effect incubated for 5 days by MTT assay
Assay type: functional, organism-based
Settings: Human immunodeficiency virus 1, IIIB, MT4, 120 h

| SMILES | EC50 [nM] |
| --- | --- |
| Cc1cc(C#N)cc(C)c1Oc1nc(Nc2ccc(C#N)cc2)ncc1SCC(=O)NCCCN1CCOCC1 | 3.41 |
| Cc1cc(C#N)cc(C)c1Oc1nc(Nc2ccc(C#N)cc2)ncc1C#CC(=O)NCCCN1CCOCC1 | 12.9 |
| Cc1cc(C#N)cc(C)c1Oc1nc(Nc2ccc(C#N)cc2)ncc1C#CC(=O)NCCOCCO | 10.5 |
| C#CCNC(=O)C#Cc1cnc(Nc2ccc(C#N)cc2)nc1Oc1c(C)cc(C#N)cc1C | 6.15 |
| COC(=O)C1CCC(NC(=O)C#Cc2cnc(Nc3ccc(C#N)cc3)nc2Oc2c(C)cc(C#N)cc2C)CC1 (stereo not drawn) | 6.38 |
| COCCNC(=O)C#Cc1cnc(Nc2ccc(C#N)cc2)nc1Oc1c(C)cc(C#N)cc1C | 2.04 |

Tested on: not listed separately
Experiment: Cytotoxicity against human MT4 cells assessed as reduction in cell viability incubated for 5 days by MTT assay
Assay type: toxicity, cell-based
Settings: time 5 day

| SMILES | CC50 at 120 h [nM] |
| --- | --- |
| Cc1cc(C#N)cc(C)c1Oc1nc(Nc2ccc(C#N)cc2)ncc1C#CC(=O)NCCCN1CCOCC1 | 59200 |
| Cc1cc(C#N)cc(C)c1Oc1nc(Nc2ccc(C#N)cc2)ncc1C#CC(=O)NCCOCCO | 9380 |
| C#CCNC(=O)C#Cc1cnc(Nc2ccc(C#N)cc2)nc1Oc1c(C)cc(C#N)cc1C | 7020 |
| COC(=O)C1CCC(NC(=O)C#Cc2cnc(Nc3ccc(C#N)cc3)nc2Oc2c(C)cc(C#N)cc2C)CC1 (stereo not drawn) | 11500 |
| COCCNC(=O)C#Cc1cnc(Nc2ccc(C#N)cc2)nc1Oc1c(C)cc(C#N)cc1C | 13600 |
